Reference: patent US10350210B2, “EGFR and ALK dual inhibitor” (PRECEDO PHARMACEUTICALS CO., LTD, priority 2015, dated 2019)

Assays:
Assay type in all cases: cell-based, human
[1] = tested on: EGFR protein (EGFR L858R/T790M, H1975); experiment: Effect on signaling pathway in cells, H1975; conditions: 4 h
Excerpt: In four cell lines (all purchased from ATCC) including non-small cell lung cancer cell line A549 (expressing wild-type EGFR gene), non-small cell lung cancer cell line H1975 (expressing EGFR L858R/T790M double mutant gene), non-small cell lung cancer cell line H3255 (expressing EGFR L858R mutant gene) and non-small cell lung cancer cell line PC-9 (expressing EGFR delE746_A750 mutant gene), the effect of Compound 1 on EGFR or other protein kinases related to signaling pathways of EGFR such as Stat3, AKT, ErK, eIF4E, 4EBP1, P70S6K was assessed by assaying a number of cellular biochemical and functional endpoints. […] The effect of Compound 1 on phosphorylation of Stat3Y705, AKT T308, AKT 5473, Erk T202/204, EGFR Y1068, P70S6K Thr389, eIF4E Ser209, Erk T202/204, 4EBP1 (Thr37/46) in these cell lines was assayed (FIGS. 1a to 1d).
In non-small cell lung cancer cell line H1975 (expressing EGFR L858R/T790M double mutant gene), the effect of Compound 10 on EGFR and other protein kinases that are closely related to the signaling pathways of EGFR such as Stat3, AKT, ErK, eIF4E, 4EBP1, P70S6K in this cell was assessed by assaying a number of cellular biochemical and functional endpoints. […] The effect of Compound 10 on phosphorylation of Stat3Y705, AKT T308, AKT S473, Erk T202/204, EGFR Y1068, P70S6K Thr389, eIF4E Ser209, Erk T202/204, 4EBP1 (Thr37/46) in this cell line was assayed (FIG. 1g).

ALK protein (H3122) = experiment: Effect on signaling pathway in cells, H3122; conditions: H3122 (expressing ALK gene), 4 h
Procedure: In non-small cell lung cancer cell line H3122 (expressing ALK gene), the effect of Compound 1 on other protein kinases that are closely related to ALK such as Stat3, Ras, MEK1/2, ErK, mTOR, PI3K, JAK3, AKT in this cell was assessed by assaying a number of cellular biochemical and functional endpoints. […] The effect of Compound 1 on phosphorylation of Stat3 Y705, Ras, MEK1/2S217/221, Erk T202/204, mTOR, PI3K, JAK3Tyr980/981, AKT T308, AKT 5473 in this cell line was assayed (FIG. 1e).
In non-small cell lung cancer cell line H3122 (expressing ALK gene), the effect of Compound 10 on ALK and other protein kinases that are closely related to ALK such as Stat3, Ras, MEK1/2, ErK, mTOR, PI3K, JAK3, AKT in this cell was assessed by assaying a number of cellular biochemical and functional endpoints. The lung cancer cell H3122 (expressing ALK gene) was treated with different concentrations of 0 μM, 0.03 μM, 0.1 μM, 0.3 μM, 1 μM, 3 μM of Compound 10 (in DMSO), 1 μM of AZD9291 (in DMSO) (purchased from Shanghai Haoyuan Chemexpress Co., Ltd.), 1 μM of LDK378 (in DMSO) (purchased from Shanghai Haoyuan Chemexpress Co., Ltd.), and blank control (DMSO) for 4 h, and the samples were collected. The effect of Compound 10 on phosphorylation of ALK Y1604, Stat3 Y705, Ras, MEK1/25217/221, Erk T202/204, mTOR, PI3K, JAK3 Tyr980/981, AKT T308, AKT S473 in this cell line was assayed (FIG. 1f).

H1975 = experiment: Effect on cell cycle (PI staining, flow cytometer), H1975; conditions: H1975 (EGFR L858R/T790M), 24 hours
Excerpt: In order to study which growth phase the cell was halted after administration of the drugs, five cell lines including non-small cell lung cancer cell line A549 (expressing wild-type EGFR gene), non-small cell lung cancer cell line H1975 (expressing EGFR L858R/T790M double mutant gene), non-small cell Lung cancer cell line PC-9 (expressing EGFR delE746_A750 mutant gene), non-small cell lung cancer cell line H3255 (expressing EGFR L858R mutant gene) and non-small cell lung cancer cell NCI-H3122 (expressing ALK gene) were tested for effect of Compound 1 on cell cycle distribution. Two cell lines including non-small cell lung cancer cell NCI-H3122 (expressing ALK gene) and non-small cell lung cancer cell H1975 (expressing EGFR L858R/T790M double mutant gene) were tested for effect of Compound 10 on cell cycle distribution. […]

H3122 = experiment: Effect on cell apoptosis (Western Blot, PARP and Caspase 3 cleavage), H3122; conditions: H3122 (ALK gene), 24 hours
Excerpt: In order to confirm whether the death of cells is through apoptosis or necrosis after administration of drugs, non-small cell lung cancer cell A549 (expressing wild-type EGFR gene), non-small cell lung cancer cell line H1975 (expressing EGFR L858R/T790M double mutant gene), non-small cell lung cancer cell line H3255 (expressing EGFR L858R mutant gene), non-small cell lung cancer cell line H3122 (expressing ALK gene) cell line, and non-small cell lung cancer cell line PC-9 (expressing EGFR delE746_A750 mutant gene) were tested for effect of Compound 1 on cleavage of poly ADP-ribose polymerase PARP which is a DNA repair enzyme and Caspase 3, which were closely related to cell apoptosis. […] Western Blot was used to detect the effect of various concentrations of drugs at various time points on cleavage of poly ADP-ribose polymerase PARP which is a DNA repair enzyme and Caspase 3.

Compound: C=CC(=O)Nc1cc(Nc2ncc(Cl)c(Nc3ccccc3S(=O)(=O)C(C)C)n2)c(OC)cc1N1CCCN(C)CC1 [Compound 10, N-(5-(5-chloro-4-(2-(isopropylsulfonyl)phenylamino)pyrimidin-2-ylamino)-4-methoxy-2-(4-methyl-1,4-homopiperazin-1-yl)phenyl)acrylamide]
- concentration able to completely inhibit the phosphorylation of EGFR protein (also affects AKT and ERK phosphorylation) [1]: 0.03 µM
- concentration able to significantly inhibit the phosphorylation of ALK protein (ALK protein (H3122)): 0.03 µM
- concentration that almost completely inhibited the phosphorylation of ALK protein (ALK protein (H3122)): 0.1 µM
- effects on other protein kinases closely related to ALK protein (Stat3, Ras, MEK1/2, ErK, JAK3, AKT) (ALK protein (H3122)): evident effects
- effect on cell cycle distribution (H1975): halt the cells in G0-G1 phase
- concentration at which evident cleavage of PARP and Caspase 3 could be observed (H3122): 1 µM

Compound: C=CC(=O)Nc1cc(Nc2ncc(Cl)c(Nc3ccccc3S(=O)(=O)C(C)C)n2)c(OC)cc1N1CCN(CC)CC1 [Compound 1, N-(5-(5-chloro-4-(2-(isopropylsulfonyl)phenylamino)pyrimidin-2-ylamino)-2-(4-ethylpiperazin-1-yl)-4-methoxyphenyl)acrylamide]
- concentration able to completely inhibit the phosphorylation of EGFR protein (also affects AKT and ERK phosphorylation) [1]: 0.03 µM
- concentration able to significantly inhibit the phosphorylation of ALK protein (ALK protein (H3122)): 0.1 µM
- concentration that almost completely inhibited the phosphorylation of ALK protein (ALK protein (H3122)): 0.3 µM
- effects on other protein kinases closely related to ALK protein (Stat3, Ras, MEK1/2, ErK, JAK3, AKT) (ALK protein (H3122)): evident effects
- effect on cell cycle distribution (H1975): halt the cells in G0-G1 phase
- concentration at which evident cleavage of PARP and Caspase 3 could be observed (H3122): 0.03 µM
